Values of other authors in US20230173142A1, “BALLISTIC DELIVERY TO MULTILAYERED TISSUES AND RELATED PARTICLES, COMPOSITIONS, METHODS AND SYSTEMS” (CALIFORNIA INSTITUTE OF TECHNOLOGY, priority 2021, published 2023).
Entries after “also recorded” stand apart in the source; their conditions may differ. Read-outs that look alike come from different tables or passages of the source.

What was measured:
[1] = test system: ear hole punch injury; conditions: multiple peripheral subcutaneous injections of hydrogel over a 10-day period; Swiss Webster mice
[2] = test system: wound healing
[3] = test system: rabbit cornea; conditions: rabbit cornea treated topically
[4] = molecular target: T1, lysyl oxidase (LOX) (Homo sapiens, UniProt P28300); conditions: increasing [Cu^2+]
T1 sequence (P28300 169-417): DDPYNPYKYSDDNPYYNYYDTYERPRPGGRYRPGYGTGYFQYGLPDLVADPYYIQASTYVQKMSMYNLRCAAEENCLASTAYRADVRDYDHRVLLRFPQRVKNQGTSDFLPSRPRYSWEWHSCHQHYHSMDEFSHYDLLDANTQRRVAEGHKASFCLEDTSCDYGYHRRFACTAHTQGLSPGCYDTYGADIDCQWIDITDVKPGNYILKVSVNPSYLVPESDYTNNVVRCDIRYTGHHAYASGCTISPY

[5] = test system: rabbit corneas; conditions: rabbit corneas ex vivo
[6] = test system: human cadaver corneas

O=C(O)c1c[nH]c2c(ccc3cccnc32)c1=O [1,4-DPCA, 1,4-dihydrophenonthrolin-4-one-3-carboxylic acid]
wound healing after ear hole punch injury [1]: regenerative wound healing

bFGF: growth factor/cytokine loaded in carrier material
Effect ([2]; Material: Concentrate): Enhanced wound closure, angiogenesis, collagen deposition, | Effect ([2]; Material: Hydrogel): Enhanced wound closure, collagen deposition, vascularization,; also recorded: Enhanced wound closure, organized collageno depostion,; also recorded: Enhanced the formation of granulation tissue, increased angiogenesis,

VEGF
Effect ([2]; Material: Hydrogel): Enhanced wound healing, granulation, collagen deposition, | Effect ([2]; Material: Lyotropic liquid crystal): Enhanced vascularization

SDF-1: stromal cell-derived factor-1
Effect ([2]; Material: Hydrogel): Accelerated wound healing and increased vascularization

[Cu+2] [Copper]
crosslinking as measured by LNL [3]: increase crosslinking | LOX activity [4]: restore LOX activity | biomechanical strength [5]: increase biomechanical strength | biomechanical strength [6]: increase biomechanical strength

aFGF: growth factor/cytokine loaded in hydrogel
Effect ([2]; Material: Hydrogel): Accelerated cell proliferation, neo-vascularization, and wound healing

EGF: growth factor loaded in carrier material
Effect ([2]; Material: Nanoparticle): Accelerated migration of inflammatory cells during the inflammation; also recorded: Enhanced wound closure, collagen deposition, angiogenesis, and
